Data on ten molecules can be found in PMC10216263, “Favorable Preclinical Pharmacological Profile of a Novel Antimalarial Pyrrolizidinylmethyl Derivative of 4-amino-7-chloroquinoline with Potent In Vitro and In Vivo Activities” (Biomolecules, 2023).

Data set [1] has as its system Escherichia coli WP2 uvrA. In words: Bacterial Reverse Mutation Assay. Particulars: Positive Control 5 µg/plate, with metabolic activation.
Protocol: (§6) using the preincubation method (30 min, 37°C) with and without phenobarbital-5,6-benzoflavone induced
(§7) MG3 was dissolved in distilled water (H2O) at
(§8) the maximum concentration of 40 mg/mL and tested in a preliminary range-finding test in all strains of
(§9) metabolic activation to determine the toxicity of the compound.
Data set [2] has as its system Salmonella typhimurium TA100. In words: Bacterial Reverse Mutation Assay. To be noted: Positive Control 1.25 µg/plate, TA 100, with metabolic activation.
Protocol: as §6, §7, §8, §9
In data set [3] the test system is Salmonella typhimurium TA98. Kind of data set: Bacterial Reverse Mutation Assay. To be noted: Positive Control 1.25 g/plate, TA 98, with metabolic activation.
Protocol: as §6, §7, §8, §9
The conditions of data set [4]: cited from earlier work.
In data set [5] the test system is P. falciparum TM90C2A (CQ-R). In words: In vitro antimalarial activity, [3H]-hypoxanthine incorporation (LSHTM). The format is cell-based. To be noted: Plasmodium falciparum, read-out: P. falciparum IC50 nM, TM90C2A (CQ-R).
For data set [6], the system named is P. falciparum K1 (CQ-R). The description is as above. To be noted: Plasmodium falciparum. The data set is classed as cell-based.
Data set [7] relates to P. berghei ANKA. Kind of data set: Oral curative activity against P. berghei ANKA. The data set is classed as in vivo, P. berghei in mice. To be noted: for Average survival (days) after infection: individual values in brackets.
Data set [8] deals with P. falciparum FCR3 (CQ-R). In words: In vitro antimalarial activity, [3H]-hypoxanthine incorporation (LSHTM). The data set is classed as cell-based. To be noted: Plasmodium falciparum.
The test system of data set [9] is P. falciparum field isolates. In words: Chemosensitivity assay on field isolates. Particulars: Plasmodium falciparum. The data set is classed as cell-based. As to the method:
(§1) The 10 P. vivax and 10 P. falciparum isolates used in this study were obtained from Mae Sod District, Tak Province, Thailand. […] Isolates were collected in 5 mL lithium-heparinized tubes and sent to the laboratory within 5–6 h.

Another data set concerns P. vivax field isolates. Kind of data set: Chemosensitivity assay on field isolates. The data set is classed as cell-based. To be noted: Plasmodium vivax, read-out: P. vivax IC50 nM, Field Isolates. As for the experimental part: as §1
Data set [10] concerns P. falciparum V1-S (CQ-R). Kind of data set: In vitro antimalarial activity, [3H]-hypoxanthine incorporation (LSHTM). The format is cell-based. To be noted: Plasmodium falciparum, read-out: P. falciparum IC50 nM, V1-S (CQ-R).
Data set [11] has as its system Pf-3D7 gametocytes >95% Stage V. Kind of data set: Gametocyte luciferase assay (3D7elo1-pfs16-CBG99). The format is cell-based, P. falciparum. To be noted: Plasmodium falciparum, 3D7, read-out: Pf-3D7 gametocytes IC50 (nM), >95% Stage V. As to the method:
(§2) In vitro activity of MG3 against P falciparum sexual gametocyte stages […]
(§3) luminescent transgenic 3D7 strain (3D7elo1-pfs16-CBG99) at two different stages (I-III and V) using the […]
(§4) Briefly, 100 µL of culture medium were removed from each well to increase hematocrit; 70 µL of resuspended culture were transferred to a black 96-well plate; 70 µL of D-luciferin (1 mM in citrate buffer 0.1 M, pH 5.5) were added. Luminescence measurements were performed after 10 min with 500 ms integration time using a Synergy4-BioTek reader.
(§5) (1 picture or pasted object on this page, not shown here)

Data set [12] has as its system Pf-3D7 gametocytes >95% Stage I-III. Kind of data set: Gametocyte luciferase assay (3D7elo1-pfs16-CBG99). The data set is classed as cell-based, P. falciparum. To be noted: Plasmodium falciparum. As for the experimental part: as §2, §3, §4, §5
A further data set has as its system P. falciparum W2 (CQ-R). Further details: method as in PMID 18538567. Particulars: 72 h incubation, pLDH method, mean of 3 experiments; cited from earlier work.
In data set [13] the test system is P. falciparum K1 (CQ-R). Kind of data set: In vitro combination study (isobologram, ∑FIC). The format is cell-based.
For another data set, the system named is P. falciparum D10 (CQ-S). Also noted: method as in PMID 18538567. To be noted: 72 h incubation, pLDH method, mean of 3 experiments; cited from earlier work.
Data set [14] deals with P. falciparum IPC5202 (ARM-R). Kind of data set: microbe, parasite or virus in culture. The data set is classed as cell-based. To be noted: Plasmodium falciparum, 72 h. As for the experimental part:
The strains D10 and 3D7 (CQ-Sensitive), and V1-S (CQ, pyrimethamine and cycloguanil resistant), K1 (CQ and PYR resistant), W2 and FCR3 (CQ-Resistant), TM90C2A (CQ, MQ, PYR and ATQ resistant) and IPC 5202 (MR4-1240, artemisinin-resistant, K13 mutation, and R539T) of Pf were cultured in vitro as described by Trager and Jensen with minor modifications. Briefly, parasites were maintained at 5% hematocrit (human type A-positive red blood cells) in RPMI 1640 (EuroClone, S.p.A. Milan, Italy) medium with the addition of 10% heat inactivate human serum or 1% AlbuMax (In vitrogen, Milan, Italy), 20 mM Hepes and 2 mM glutamine (Euroclone), at 37 °C in a standard gas mixture consisting of 1–3% O2, 5% CO2, and 92–94% N2.
Compounds were dissolved in either water or DMSO and then diluted with medium to achieve the required concentrations (final non-toxic DMSO concentration <1%). Asynchronous cultures of Pf with parasitaemia of 1–1.5% and 1% final hematocrit were aliquoted into 96-well flat-bottom microplates (Corning, Glendale, AZ, USA) with serial dilutions of test compounds and incubated for 72 h at 37 °C. Parasite growth was determined spectrophotometrically (OD650) by measuring the activity of the parasite lactate dehydrogenase (pLDH) according to a modified version of the method of Makler in control and drug-treated cultures.

Another data set relates to P. falciparum 3D7 (CQ-S). Kind of data set: In vitro antimalarial activity, [3H]-hypoxanthine incorporation (LSHTM). Particulars: Plasmodium falciparum, 3D7, read-out: P. falciparum IC50 nM, 3D7 (CQ-S). The format is cell-based.
A further data set has as its system P. yoelii NS. Further details: method as in PMID 19284751. To be noted: oral 4-day test; cited from earlier work.
The subject of data set [15] is P. berghei ANKA. Further details: method as in PMID 19284751. To be noted: oral 4-day test; cited from earlier work.
Data set [16] relates to P. falciparum K1 (CQ-R). Also noted: method as in PMID 17466277. To be noted: literature value; read-out: IC50 against K1 strain; cited from earlier work.
Setting [17] is: 72 h, [3H]-hypoxanthine incorporation, mean of 3 experiments.
The mark [18] stands for this setting: K1, read-out: P. falciparum IC50 nM, K1 (CQ-R).
Where [19] appears, read: FCR3, read-out: P. falciparum IC50 nM, FCR3 (CQ-R).

Like-named read-outs stand apart in the source and are kept apart here.

With `Nc1ccc2cc3ccccc3cc2c1` [2-aminoanthracene, reference compound], the “fold increase value (ratio treated/solvent revertant numbers)” value in data set [1] (I° Exp.) worked out at 13.0; in data set [1] (Range finding) it was 8.2; in data set [2] (I° Exp.), 5.1; in data set [2] (Range finding), 7.7; in data set [3] (I° Exp.), 37.2; in data set [3] (Range finding) it was 26.5.
Take `CCN(CC)CCCNc1ccnc2cc(Cl)ccc12` [AQ13]: the absolute bioavailability in data set [4] (in vivo) is on record as 70%.
One may read the IC50 as the midpoint of a concentration-inhibition curve. For the molecule `C[C@H]1[C@H](OC(=O)CCC(=O)O)O[C@@H]2O[C@@]3(C)CC[C@H]4[C@H](C)CC[C@@H]1[C@@]24OO3` [ASN, artesunate], the IC50 in data set [5] (setting [17]) was found to be 2.6 nM; in the data set on P. falciparum K1 (CQ-R) [6] (K1, 72 h, [3H]-hypoxanthine incorporation, mean of 3 experiments, read-out: P. falciparum IC50 nM, K1 (CQ-R)), 2.6 nM; in [8] (FCR3, 72 h, [3H]-hypoxanthine incorporation, mean of 3 experiments, read-out: P. falciparum IC50 nM, FCR3 (CQ-R)), 2.6 nM; in data set [9] (mean of 10 field isolates, Thai Burmese Border, read-out: P. falciparum IC50 nM, Field Isolates) it was 4.2 nM; in the data set with P. vivax field isolates (mean of 10 field isolates, Thai Burmese Border), 2.3 nM; in [10] (setting [17]), 2.7 nM. Moreover, the “% Suppression of parasitaemia (on day 4 post infection)” value (“% Suppression of parasitaemia” for short) in the data set on P. berghei ANKA [7] (oral dose 3 x 30 mg/kg) stood at 99.09%. For the same molecule, the “Average survival (days) after infection” value in the data set on P. berghei ANKA [7] (oral dose 3 x 30 mg/kg) is 8 (7, 8, 8, 9, 9) days.
For `CCN(CC)Cc1cc(Nc2ccnc3cc(Cl)ccc23)ccc1O` [Amodiaquine, amodiaquine], in the data set with P. berghei ANKA [7] (oral dose 3 x 10 mg/kg), the “% Suppression of parasitaemia” value came out at 100% and the “Average survival (days) after infection” value is 11 (9, 11, 11, 12, 13) days.
Consider `CCN(CC)CCCC(C)Nc1ccnc2cc(Cl)ccc12` (stereo not shown) [CQ, chloroquine], for which the IC50 in data set [11] is 11700 ± 4120 nM; in data set [12] (3D7, read-out: Pf-3D7 gametocytes IC50 (nM), >95% Stage I-III), 104 ± 34.7 nM; in data set [5], 145 nM; with P. falciparum W2 (CQ-R), 294 nM; in the data set on P. falciparum K1 (CQ-R) [6] (setting [18]) it was 708 nM; with P. falciparum D10 (CQ-S) it was 16.5 nM. Also, the concentration for half-maximal inhibition (IC50) amounted to 163 nM in [14] (read-out: P. falciparum IC50 nM, IPC5202 (ARM-R)); 12.1 nM with P. falciparum 3D7 (CQ-S); 194 nM in data set [8] (setting [19]); 252 nM in data set [9] (read-out: P. falciparum IC50 nM, Field Isolates, mean of 10 field isolates, Thai Burmese Border); 86.6 nM with P. vivax field isolates; 774 nM in data set [10]. The “Mean ∑FIC50 (95% CI)” value with P. falciparum K1 (CQ-R) [13] (in combination with ASN, K1, IC50 level) is 1.67 (1.44 – 1.90); in the data set on P. falciparum K1 (CQ-R) [13] (in combination with DHA, K1, IC50 level), 1.27 (1.16 – 1.38); with P. falciparum K1 (CQ-R) [13] (in combination with RKA-182, K1, IC50 level), 1.19 (0.77 – 1.60). Moreover, the “% Suppression of parasitaemia” value in the data set with P. berghei ANKA [7] (oral dose 3 x 30 mg/kg) turned out to be 99.84%. Moreover, in the data set on P. berghei ANKA [7] (oral dose 3 x 30 mg/kg), the “Average survival (days) after infection” value is 13 (12, 12, 13, 13, 13) days.
Regarding `C[C@H]1[C@@H](O)O[C@@H]2O[C@@]3(C)CC[C@H]4[C@H](C)CC[C@@H]1[C@@]24OO3` [DHA, dihydroartemisinin], the IC50 in the data set on P. falciparum W2 (CQ-R) was 2 nM; in the data set with P. falciparum K1 (CQ-R) [6] (setting [18]) it was 1.4 nM; in the data set with P. falciparum D10 (CQ-S), 3.9 nM; in [14] (read-out: P. falciparum IC50 nM, IPC5202 (ARM-R), 72 h incubation, pLDH method) it was 2.2 nM; in the data set on P. falciparum 3D7 (CQ-S), 3 nM; in [8] (setting [19]) it was 1.23 nM. Also, in data set [10], the IC50 is 1.8 nM.
In the case of `CC(C)(C)NCc1cc(Nc2ccnc3cc(Cl)ccc23)ccc1F` [FAQ4, 4′-Fluoro-N-tert-butylamodiaquine], in the data set with P. yoelii NS, the “ED50 (95% CI) Mean” value was 7.70 (6.70–8.90) mg/kg and the “ED90 (95% CI) Mean” value is 10.60 (9.40–11.80) mg/kg. In the data set with P. berghei ANKA [15], the “ED50 (95% CI) Mean” value is 5.30 (4.10–6.80) mg/kg and the “ED90 (95% CI) Mean” value is given as 12.40 (10.7–14.4) mg/kg.
As to `CN(C)c1ccc2nc3ccc(=[N+](C)C)cc-3sc2c1` [Methylene Blue, reference compound], the IC50 in [11] was 145 ± 42.6 nM; in data set [12] (3D7, read-out: Pf-3D7 gametocytes IC50 (nM), >95% Stage I-III, luciferase readout, 3D7elo1-pfs16-CBG99) it was 59.6 ± 21.7 nM.
With `CC(C)(C)NCc1ccc(Nc2ccnc3cc(Cl)ccc23)cc1O` [NTBI, N-tert-butyl isoquine], the absolute bioavailability in data set [4] (literature value) is recorded as 68%.
Regarding `Clc1ccc2c(N3CCN(CCCN4CCN(c5ccnc6cc(Cl)ccc56)CC4)CC3)ccnc2c1` [piperaquine], in the data set on P. falciparum K1 (CQ-R) [16], the IC50 is 49 nM.
